Read-outs that look alike come from different tables or passages of the source.
Legend:
HEK-293T-ACE2^h cells = experiment: MTT cytotoxicity assay on host cells (4 h); type: cell-based, human; conditions: for CC0 (maximum nontoxic concentration) / TC50 (concentration reducing cell viability by 50%): MTT, 4 h
[1] = biological target: SARS-CoV-2 spike RBD protein (Severe acute respiratory syndrome coronavirus 2, UniProt P0DTC2); experiment: biochemical; type: binding
Beas-2B cells = experiment: MTT cytotoxicity on human normal cell line Beas-2B (24 h); type: cell-based; conditions: for IC50: Homo sapiens, BEAS-2B, 24 h, read-out: IC50 Values of Human Normal Cell Lines, Beas-2B
LO2 cells = experiment: MTT cytotoxicity on human normal cell line LO2 (24 h); type: cell-based; conditions: for IC50: Homo sapiens, L02, 24 h, read-out: IC50 Values of Human Normal Cell Lines, LO2
HEK 293 cells = experiment: MTT cytotoxicity on human normal cell line HEK 293 (24 h); type: cell-based; conditions: for IC50: Homo sapiens, HEK293, 24 h, read-out: IC50 Values of Human Normal Cell Lines, HEK 293
SARS-CoV-2 pseudovirus [2] = tested on: SARS-CoV-2 pseudovirus
SARS-CoV-2 pseudovirus [3] = experiment: microbe, parasite or virus in culture; conditions: Severe acute respiratory syndrome-related coronavirus, read-out: IC50 (inhibition of pseudovirus entry into host cells)

| Structure (SMILES) | CC0 (maximum nontoxic concentration) (HEK-293T-ACE2^h cells) | TC50 (concentration reducing cell viability by 50%) (HEK-293T-ACE2^h cells) | Kd [1] | IC50 (Beas-2B cells) | IC50 (LO2 cells) | IC50 (HEK 293 cells) | SI (ratio of TC50 to IC50) (SARS-CoV-2 pseudovirus [2]) | IC50 (SARS-CoV-2 pseudovirus [2]; read-out: IC50 (inhibition of pseudovirus entry into host cells)) | IC50 (SARS-CoV-2 pseudovirus [3]) | cytotoxicity to the host cells (in words) (HEK-293T-ACE2^h cells; 500 μM) | binding signal [1] | cytotoxic effect (in words), Beas-2B (Beas-2B cells; tested dose of 500 μM) | cytotoxic effect (in words), LO2 (LO2 cells; tested dose of 500 μM) | cytotoxic effect (in words), HEK 293 (HEK 293 cells; tested dose of 500 μM) |
| --- | --- | --- | --- | --- | --- | --- | --- | --- | --- | --- | --- | --- | --- | --- |
| O=c1c(O)c(-c2ccc(O)cc2)oc2cc(O)cc(O)c12 [compound 14, Kaempferol] | 200 µM | >200 µM | 18.5 ± 5.49 µM | > 200 µM | > 200 µM | > 200 µM | >5.77 | 34.6 ± 7.69 µM | < 50 µM |  |  |  |  |  |
| O=c1c(O)c(-c2ccc(O)c(O)c2)oc2cc(O)cc(O)c12 [compound 15, Quercetin] | 300 µM | >500 µM | 11.2 ± 3.85 µM | > 500 µM | > 500 µM | > 500 µM |  |  |  |  |  |  |  |  |
| O=c1c(O)c(-c2cc(O)c(O)c(O)c2)oc2cc(O)cc(O)c12 [compound 16, Myricetin] | 300 µM | >500 µM |  | > 500 µM | > 500 µM | > 500 µM |  |  |  | did not demonstrate any cytotoxicity | 0.60 nm | did not show any significant cytotoxic effect | did not show any significant cytotoxic effect | did not show any significant cytotoxic effect |
| Oc1cc(O)c2c(c1)O[C@H](c1ccc(O)c(O)c1)[C@@H](O)[C@@H]2c1c(O)cc(O)c2c1O[C@H](c1ccc(O)c(O)c1)[C@H](O)C2 [compound 30, Procyanidin B-4] | 300 µM | >500 µM |  | > 500 µM | > 500 µM | > 500 µM | >3.30 |  | 151 ± 28.1 µM |  |  |  |  |  |
| Oc1cc(O)c2c(c1)O[C@H](c1ccc(O)c(O)c1)[C@H](O)[C@H]2c1c(O)cc(O)c2c1O[C@H](c1ccc(O)c(O)c1)[C@H](O)[C@H]2c1c(O)cc(O)c2c1O[C@H](c1ccc(O)c(O)c1)[C@H](O)C2 [compound 31, Procyanidin C-1] | 300 µM | >500 µM |  | > 500 µM | > 500 µM | > 500 µM | >2.90 |  | 173 ± 20.7 µM |  |  |  |  |  |
